Measurements as given in patent publication US20260265259A1, “SUBSTITUTED 6-IMIDAZOPYRIDAZINE IL-17A MODULATORS AND USES THEREOF” (DICE ALPHA, INC., priority 2023, published 2026).
pIC50: −log10 of the molar value.

Tested on: IL-17A/A
Test: IL-17A/A HEK-Blue cell assay
Format: cell-based
Settings: HEK-Blue, 20 h, IL-17A/A inhibition, HEK-Blue IL-17A reporter cell line, IL17A/A 5 ng/mL, SEAP read at A630, read-out: AA IC50
Method: The HEK-Blue IL-17A reporter cell line (Fisher #NC1408637) was used for cell-based IL-17A/A inhibition assays. Cells were grown and prepared for assays according to the manufacturer's instructions. This cell line consists of HEK 293 cells that were designed to expressed IL-17RA, IL-17RC, and the Act1 adapter molecule, the combination of which, when stimulated by IL-17A/A or IL17A/F activates a NFκB promoter and drives expression of the recombinant Secreted Alkaline Phosphatase (SEAP) gene. Media from the cells is then added to a development reagent (Quanti-Blue Substrate, Fisher #NC9711613), and read at A630.
Compounds were dispensed in DMSO to an empty clear 384-well tissue culture plate in a titration ranging from 10 μM to 27 pM, with DMSO added to every well to a final concentration of 0.1%. Cells were then added to the plate (45 μL/well at a concentration of 280,000 cells/mL). IL17A/A (Genscript #Z03228) or IL17A/F (R&D Systems) was added to the plate to a final concentration of 5 ng/mL and a final well volume of 50 μL. The cells, compound, and IL-17A/A or IL17A/F were then incubated for 20 hours before media was removed for SEAP analysis. The resulting inhibition curve was then analyzed using Dotmatics' integrated 4-parameter fit screening protocol to generate IC50 values.

Row | pIC50 | SMILES
1 | > 7.00 | CCn1nccc1C(=O)N[C@H](c1cn2nc(C[C@H]3C[C@@H](C(F)(F)F)CNC3=O)c(CN3CCCC3)cc2n1)C1CCC(F)(F)CC1 [Compound 106, N—((S)-(4,4-difluorocyclohexyl)(6-(((3R,5R)-2-oxo-5-(trifluoromethyl)piperidin-3-yl)methyl)-7-(pyrrolidin-1-ylmethyl)imidazo[1,2-b]pyridazin-2-yl)methyl)-1-ethyl-1H-pyrazole-5-carboxamide]
2 | > 7.00 | CCn1nccc1C(=O)N[C@H](c1cn2nc(C[C@H]3C[C@@H](C(F)(F)F)CNC3=O)c(N3CC4CCC(C3)O4)cc2n1)C1CCC(F)(F)CC1 [Compound 50]
3 | 6.00 to 7.00 | O=C(N[C@H](c1cn2nc(C[C@H]3C[C@@H](C(F)(F)F)CNC3=O)c(N3CC(F)(F)C3)cc2n1)C1CCC(F)(F)CC1)c1nonc1C1CC1 [Compound 40]
4 | > 7.00 | CCn1nccc1C(=O)N[C@H](c1cn2nc(C[C@H]3C[C@@H](C(F)(F)F)CNC3=O)c(N3CCO[C@H](C)C3)cc2n1)C1CCC(F)(F)CC1 [Compound 33, N—((S)-(4,4-difluorocyclohexyl)(7-((R)-2-methylmorpholino)-6-(((3R,5R)-2-oxo-5-(trifluoromethyl)piperidin-3-yl)methyl)imidazo[1,2-b]pyridazin-2-yl)methyl)-1-ethyl-1H-pyrazole-5-carboxamide]
5 | 6.00 to 7.00 | CCn1nccc1C(=O)N[C@H](c1cn2nc(C[C@@H]3C[C@@H](C(F)(F)F)CNC3=O)c(C3CCOC3)cc2n1)C1CCC(F)(F)CC1 (stereo partly drawn) [Compound 10]
6 | < 6.00 | CCn1nccc1C(=O)N[C@H](c1cn2nc(C[C@@H]3C[C@@H](C(F)(F)F)CNC3=O)c(N3CCC3)cc2n1)C1CCC(F)(F)CC1 [Compound 24]
7 | > 7.00 | CC(C)n1nccc1C(=O)N[C@H](c1cn2nc(C[C@H]3C[C@@H](C(F)(F)F)CNC3=O)c(C3CCOCC3)cc2n1)C1CCC(F)(F)CC1 [Compound 75]
8 | > 7.00 | CCn1nccc1C(=O)N[C@H](c1cn2nc(C[C@H]3C[C@@H](C(F)(F)F)CNC3=O)c(N3CCN(C)CC3)cc2n1)C1CCC(F)(F)CC1 [Compound 20]
9 | > 7.00 | CCn1nccc1C(=O)N[C@H](c1cn2nc(C[C@H]3C[C@@H](C(F)(F)F)CNC3=O)c(C3CCCCO3)cc2n1)C1CCC(F)(F)CC1 (stereo partly drawn) [Compound 84]
10 | > 7.00 | CCn1nccc1C(=O)N[C@H](c1cn2nc(C[C@H]3C[C@@H](C(F)(F)F)CNC3=O)c(C3CCOC3)cc2n1)[C@@H]1CCCC(F)(F)C1 (stereo partly drawn) [Compound 68]
11 | 6.00 to 7.00 | CCn1nccc1C(=O)N[C@H](c1cn2nc(C[C@H]3C[C@@H](C(F)(F)F)CNC3=O)c(N3CC(O)C3)cc2n1)C1CCC(F)(F)CC1 [Compound 98]
12 | > 7.00 | CCn1nccc1C(=O)N[C@H](c1cn2nc(C[C@H]3C[C@@H](C(F)(F)F)CNC3=O)c(C3CCS(=O)(=O)CC3)cc2n1)C1CCC(F)(F)CC1 [Compound 118, N—((S)-(4,4-difluorocyclohexyl)(7-(1,1-dioxidotetrahydro-2H-thiopyran-4-yl)-6-(((3R,5R)-2-oxo-5-(trifluoromethyl)piperidin-3-yl)methyl)imidazo[1,2-b]pyridazin-2-yl)methyl)-1-ethyl-1H-pyrazole-5-carboxamide]
13 | > 7.00 | O=C(N[C@H](c1cn2nc(C[C@H]3C[C@@H](C(F)(F)F)CNC3=O)c(C3CCOC3)cc2n1)[C@H]1CCCC(F)(F)C1)c1nonc1C1CC1 (stereo partly drawn) [Compound 69]
14 | > 7.00 | CCn1nccc1C(=O)N[C@H](c1cn2nc(C[C@H]3C[C@@H](C(F)(F)F)CNC3=O)c(N3CCC(OC)C3)cc2n1)C1CCC(F)(F)CC1 (stereo partly drawn) [Compound 77]
15 | > 7.00 | CCn1nccc1C(=O)N[C@H](c1cn2nc(C[C@H]3C[C@@H](C(F)(F)F)CNC3=O)c(CN(C)CC(F)(F)F)cc2n1)C1CCC(F)(F)CC1 [Compound 116, N—((S)-(4,4-difluorocyclohexyl)(7-((methyl(2,2,2-trifluoroethyl)amino)methyl)-6-(((3R,5R)-2-oxo-5-(trifluoromethyl)piperidin-3-yl)methyl)imidazo[1,2-b]pyridazin-2-yl)methyl)-1-ethyl-1H-pyrazole-5-carboxamide]
16 | > 7.00 | CCn1nccc1C(=O)N[C@H](c1cn2nc(C[C@@H]3C[C@H](C)CNC3=O)c(C3CCOCC3)cc2n1)C1CCC(F)(F)CC1 [Compound 103, N—((1S)-(4,4-difluorocyclohexyl)(6-(((5S)-5-methyl-2-oxopiperidin-3-yl)methyl)-7-(tetrahydro-2H-pyran-4-yl)imidazo[1,2-b]pyridazin-2-yl)methyl)-1-ethyl-1H-pyrazole-5-carboxamide]

Row | pIC50 | SMILES
17 | > 7.00 | CCn1nccc1C(=O)N[C@H](c1cn2nc(C[C@H]3C[C@@H](C(F)(F)F)CNC3=O)c(N3CCOCC3)cc2n1)C1CCC(F)(F)CC1 [Compound 37]
18 | > 7.00 | CCn1nccc1C(=O)N[C@H](c1cn2nc(C[C@H]3C[C@@H](C(F)(F)F)CNC3=O)c(N3CCOCC3)cc2n1)[C@@H]1CCCC(F)(F)C1 [Compound 26]
19 | 6.00 to 7.00 | CCn1nccc1C(=O)N[C@H](c1cn2nc(C[C@H]3C[C@@H](C(F)(F)F)CNC3=O)c(N3CC(F)(F)C3)cc2n1)C1CCC(F)(F)CC1 [Compound 41]
20 | > 7.00 | CCn1nccc1C(=O)N[C@H](c1cn2nc(C[C@H]3C[C@@H](C(F)(F)F)CNC3=O)c(C3COC3)cc2n1)C1CCC(F)(F)CC1 [Compound 5]
21 | 6.00 to 7.00 | CCn1nccc1C(=O)N[C@H](c1cn2nc(C[C@H]3C[C@@H](C(F)(F)F)CNC3=O)c(C3CCN(C)C3)cc2n1)C1CCC(F)(F)CC1 (stereo partly drawn) [Compound 61]
22 | < 6.00 | O=C(N[C@H](c1cn2nc(C[C@@H]3C[C@H](C(F)(F)F)CNC3=O)c(N3CCOCC3)cc2n1)C1CCC(F)(F)CC1)c1nonc1C1CC1 [Compound 39]
23 | 6.00 to 7.00 | CCn1nccc1C(=O)N[C@H](c1cn2nc(C[C@H]3C[C@@H](C(F)(F)F)CNC3=O)c(C3COCCO3)cc2n1)C1CCC(F)(F)CC1 (stereo partly drawn) [Compound 94]
24 | > 7.00 | CCn1nccc1C(=O)N[C@H](c1cn2nc(C[C@H]3C[C@@H](C(F)(F)F)CNC3=O)c(CN(C)C)cc2n1)C1CCC(F)(F)CC1 [Compound 111, N—((S)-(4,4-difluorocyclohexyl)(7-((dimethylamino)methyl)-6-(((3R,5R)-2-oxo-5-(trifluoromethyl)piperidin-3-yl)methyl)imidazo[1,2-b]pyridazin-2-yl)methyl)-1-ethyl-1H-pyrazole-5-carboxamide]
25 | > 7.00 | CCn1nccc1C(=O)N[C@H](c1cn2nc(C[C@H]3C[C@@H](C(F)(F)F)CNC3=O)c(C3CCOCC3)cc2n1)[C@@H]1CCCC(F)(F)C1 [Compound 56]
26 | > 7.00 | O=C(N[C@H](c1cn2nc(C[C@H]3C[C@@H](C(F)(F)F)CNC3=O)c(N3CCOCC3)cc2n1)[C@@H]1CCCC(F)(F)C1)c1nonc1C1CC1 [Compound 30]
27 | 6.00 to 7.00 | CCn1nccc1C(=O)N[C@H](c1cn2nc(C[C@H]3C[C@@H](C)CNC3=O)c(C3CCOCC3)cc2n1)C1CCC(F)(F)CC1 [Compound 100, N—((1S)-(4,4-difluorocyclohexyl)(6-(((5R)-5-methyl-2-oxopiperidin-3-yl)methyl)-7-(tetrahydro-2H-pyran-4-yl)imidazo[1,2-b]pyridazin-2-yl)methyl)-1-ethyl-1H-pyrazole-5-carboxamide]
28 | 6.00 to 7.00 | CCn1nccc1C(=O)N[C@H](c1cn2nc(C[C@H]3C[C@@H](C(F)(F)F)CNC3=O)c(C3CCN(C)CC3)cc2n1)C1CCC(F)(F)CC1 [Compound 60]
29 | 6.00 to 7.00 | CCn1nccc1C(=O)N[C@H](c1cn2nc(C[C@H]3C[C@H](C)CNC3=O)c(C3CCOCC3)cc2n1)C1CCC(F)(F)CC1 [Compound 102, N—((1S)-(4,4-difluorocyclohexyl)(6-(((5S)-5-methyl-2-oxopiperidin-3-yl)methyl)-7-(tetrahydro-2H-pyran-4-yl)imidazo[1,2-b]pyridazin-2-yl)methyl)-1-ethyl-1H-pyrazole-5-carboxamide]
30 | > 7.00 | O=C(N[C@H](c1cn2nc(C[C@H]3C[C@@H](C(F)(F)F)CNC3=O)c([C@H]3CCOC3)cc2n1)C1CCC(F)(F)CC1)c1nonc1C1CC1 [Compound 44]
31 | > 7.00 | O=C(N[C@H](c1cn2nc(C[C@H]3C[C@@H](C(F)(F)F)CNC3=O)c(C3CCOCC3)cc2n1)[C@H]1CCCC(F)(F)C1)c1nonc1C1CC1 [Compound 57]

Same assay, conditions: IL-17A/A inhibition, HEK-Blue IL-17A reporter cell line, IL17A/A 5 ng/mL, 20 hours, SEAP read at A630; read-out: AA IC50

Row | pIC50 | SMILES
32 | 6.00 to 7.00 | CCn1nccc1C(=O)N[C@H](c1cn2nc(C[C@H]3C[C@@H](C(F)(F)F)CNC3=O)c(C3CCN(C)C3)cc2n1)C1CCC(F)(F)CC1 (stereo partly drawn) [Compound 62]
33 | > 7.00 | CCn1nccc1C(=O)N[C@H](c1cn2nc(C[C@H]3C[C@@H](C(F)(F)F)CNC3=O)c(C3CCOC3)cc2n1)[C@@H]1CCCC(F)(F)C1 (stereo partly drawn) [Compound 72]
34 | > 7.00 | CCn1nccc1C(=O)N[C@H](c1cn2nc(C[C@H]3C[C@@H](C(F)(F)F)CNC3=O)c(C3CCOC3)cc2n1)[C@H]1CCCC(F)(F)C1 (stereo partly drawn) [Compound 71]
35 | > 7.00 | CCn1nccc1C(=O)N[C@H](c1cn2nc(C[C@H]3C[C@@H](C(F)(F)F)CNC3=O)c(N3CC4CC3CO4)cc2n1)C1CCC(F)(F)CC1 (stereo partly drawn) [Compound 52]
36 | > 7.00 | CCn1nccc1C(=O)N[C@H](c1cn2nc(C[C@H]3C[C@@H](C(F)(F)F)CNC3=O)c(C3CCCOC3)cc2n1)C1CCC(F)(F)CC1 (stereo partly drawn) [Compound 12]
